Assay results reported in patent US6365619B1, “Treatment of arteriosclerosis” (Novartis AG, priority 1999, dated 2002).

Tests used:
[1] = tested on: neointimal formation in a mouse model of carotid artery transplantation; assay: Murine carotid artery loop transplantation: neointimal formation (transplant-associated arteriosclerosis); type: in vivo; details: mean±SD
Excerpt: The effect of compound 369 (VLA-4 antagonist) and compound 741 (VCAM-1 inhibitor) on the development of transplant-associated arteriosclerosis as measured by neointimal formation in a mouse model of carotid artery transplantation is investigated as mono-, combined, and tolerance induction therapy. Grafts are harvested at 30 days post-transplantation.
A murine model of accelerated transplant arteriosclerosis is used. Carotid arteries are allografted from B10.A (2R) to B10.BR mice, a commercially available strain combination that consistently results in neointimal formation 30 days after transplantation. The procedure is performed on anesthetized mice under a surgical dissecting microscope. A midline incision is made on the ventral side of neck from the suprasternal notch to the chin. The left carotid artery is gently dissected from the bifurcation in the distal end toward the proximal end as far as is technically possible. The artery is then occluded with two microvascular clamps, one at each end, and two longitudinal arteriotomies (0.5 to 0.6 mm) are made with a fine needle and scissors. In the donor mouse both the left and right carotid arteries are fully dissected from the arch to the bifurcation. The graft is then transplanted paratopically into the recipient in an end-to-side anastamosis with 11/0 continuous suture, and the skin incision is closed with a 5/0 interrupted suture. […] Vascular grafts are harvested 30 days after transplantation, a point at which a fully developed, nearly occlusive neointima is formed.
Compound 369: In the monotherapy experiments, compound 369 is administered three times per day subcutaneously (s.c.) for a total daily dose of 90 mg/kg/day.
Compound 741: Compound 741 is administered continuously via alzet pump in a dose of 5.0, 1.0, and 0.5 mg/kg/day, respectively.
Anti VLA-4 Mab: The anti VLA-4 antibody is administered 100 μg/mouse/d i.p.
A fixed dose of compound 369 is given as a total daily dose of 60 mg/kg/day s.c. and compound 741 is administered continuously via alzet pump at a dose of 5.0, 1.0, and 0.5 mg/kg/day, respectively.
Compound 369 (60 mg/kg/d) and compound 741 (5 mg/kg/d) are given simultaneously for the first 10 days only.
In all cases, allografts are harvested at day 30. […]
Morphometrical analysis is performed on VerHoeff stained paraffin sections using a computer-assisted image analysis system. The areas of the neointima are measured by computerized planimetry of sections obtained approximately 150, 300, and 450 μm from the center of the graft.
Data from morphometric analyses are reported as the neointima area on cross-section determined by subtracting the new lumen area measurement from the internal elastic lamina (IEL) area measurement for each animal. […]

[2] = Dissolution of compound 741 in dosing vehicle; type: physicochemical; details: 1:1 mixture of CsA placebo solution (Cremphor, ethanol) and propylene glycol
Experimental: Compound 741 is dissolved in a 1:1 mixture of CsA placebo solution (each mL contains 650 mg of Cremphor and 32.9% ethanol) and propylene glycol. Compound 741 is very soluble in this mixture and the final solution is clear.

solubility [2] | SMILES | neointima area on cross-section ([1]; monotherapy compound 369 90 mg/kg/d s.c. (three times per day), allograft harvested day 30) | neointima area on cross-section ([1]; monotherapy Cmpd.741 0.5 mg/kg/d continuously via alzet pump, allograft harvested day 30) | neointima area on cross-section ([1]; monotherapy Cmpd.741 1 mg/kg/d continuously via alzet pump, allograft harvested day 30) | neointima area on cross-section ([1]; monotherapy Cmpd.741 5 mg/kg/d continuously via alzet pump, B10.A (2R) to B10.BR allograft harvested day 30)
 | COCCCN(CC(=O)N[C@@H](CC(=O)O)c1ccc(OC)c(OC)c1)C(=O)Cc1ccc(NC(=O)Nc2ccccc2C)cc1 [Cmpd.369, (S)-β-[3-Methoxypropyl)[[4-[(2-methylphenylaminocarbonylamino)-phenyl]acetyl]amino]acetylamino-3,4-dimethoxy-benzenepropanoic Acid] | 19,874 μm^2 |  |  | 
very soluble | CCCCC(C)CC1NC(=O)C(Cc2cn(OC)c3ccccc23)N(C)C(=O)C(CC(C)C)NC(=O)C(CC(C)C)N(C)C(=O)C(CC(C)CCCC)NC(=O)C(CCC(=O)OCCC)OC(=O)C(C)N(C)C1=O (centres unmarked) [Cmpd.741] |  | 30,926 μm^2 | 32,249 μm^2 | 18,804 μm^2
